Here are results for 30 molecules from patent publication US11773063B1, “Pharmaceutically acceptable salts and compositions thereof” (priority 2022, dated 2023).

Structures can show the parent of a compound that is named as a salt.

A short description of data set [1]: Thermo-Gravimetric Analysis (TGA), thermal stability. The conditions noted are these: 10° C./min; for thermal stability up to (TGA): nitrogen. The protocol: Thermo—Gravimetric Analysis (TGA)
TGA thermograms were obtained with a TA Instrument Discovery 550 in Al pans. The heating rate used was 10° C./min linear ramp from 25 to 400° C. with a nitrogen purging at a rate of 60 ml/min. TGA thermograms were analysed using TRIOS software.

Data set [2] can be described thus: Polymorphism screen of hydrochloride and benzoate salts: thermal cycling, evaporation, antisolvent addition, cooling (XRPD). In kind it is physicochemical. The note with it: for XRPD Result / 3-day Observations: hydrochloride salt, three days; for XRPD Result: solid isolated after thermal cycle between ambient and 40° C., -20 iso-Prop; for XRPD Result / 3-day Observations / Initial Observations: solvent per experiment: -01 1,4-Dioxane, -02 1-Propanol, -03 2-Butanol, -05 2-Methyltetrahydrofuran, -06 2-Propanol, -07 Acetone, -08 Acetonitrile, -09 Anisole, -10 Chlorobenzene, -11 Ethanol, -12 Ethyl acetate, -13 Isopropyl acetate, -14 Methanol, -15 Propyl acetate, -16 Methylethyl ketone; for 3-day Observations: thermally cycled between ambient and 40° C., -17 Forma; for 3-day Observations / Initial Observations: -04 2-Ethoxyethanol; for Initial Observations: thermal cycle of lyophilised hydrochloride salt (~40 mg), solvent added, -17 Formamide. The protocol: Twenty five of the lyophilised samples were treated with solvent and thermally cycled between ambient and 40° C. with four hours spent under each condition. After three days and solids were isolated by centrifuge filtration and analysed by XRPD.
Twelve samples of the lyophilised material were treated with a minimal volume (ca 0.5 ml) of warm solvent, syringe filtered through a 0.22 µm filter and added to a clean HPLC vial and allowed to evaporate at RT. The solvents used and XRPD results following evaporation are detailed in the Table below:
Twelve samples of the lyophilised material were treated with a minimal volume (ca 0.5 ml) of warm solvent, syringe filtered through a 0.22 micrometre filter and added to a clean HPLC vial and allowed to evaporate at RT. The solvents used and XRPD results following evaporation are detailed in the Table below:
For antisolvent additions thirteen samples of the lyophilised material were dissolved in a small amount of hot solvent (^˜0.5 ml). […] A large excess of antisolvent was then added, the vials sealed. After storage at RT overnight, and samples where no solid had been produced were first cooled to 4° C. for ˜24 hrs, and again if no solid was produced, they were cooled to −18° C. Any solids were isolated by centrifuge filtration and analysed by XRPD.
For the cooling experiments twelve samples of the lyophilised material were dissolved in a small amount of hot solvent (^˜[…]) and syringe filtered through a 0.22 μm filter into a clean HPLC vial. Samples were allowed to cool to RT, and if no solid was produced to 4° C. and then to −18° C. Solids were isolated by centrifuge filtration and analysed by XRPD.

A short description of data set [3]: Dynamic Vapor Sorption (DVS), salt screen and scale-up salts. In kind it is physicochemical. The conditions noted are these: 25° C. The procedure: Dynamic Vapor Sorption (DVS)
DVS analyses were performed on TA Instrument DVS Q5000. Samples were added to a pre-tared metallised quartz crucible and run at 25° C. from 40% RH to 90% RH, down to zero and back to 40%. This cycle was repeated in increments of 10% RH.

Turning to `COc1ccc2[nH]cc(CCN(C)C)c2c1` [Saccharinate salt, 5-MeO-DMT saccharinate], in data set [1], the “thermal stability up to (TGA)” value came to 200 °C.
For the molecule `COc1ccc2[nH]cc(CCN(C)C)c2c1.Cl` [DJP2202-007-07], in data set [2], the “XRPD Result” value is “Pattern 1”, the “3-day Observations” value is recorded as “few crystals” and the “Initial Observations” value was “no change”.
Regarding `COc1ccc2[nH]cc(CCN(C)C)c2c1.Cl` [DJP2202-007-23], in data set [2], the “3-day Observations” value is “clear solution” and the “Initial Observations” value is reported as “dissolved”.
Consider `COc1ccc2[nH]cc(CCN(C)C)c2c1.Cl` [DJP2202-007-19], for which, in data set [2], the “3-day Observations” value was “clear solution” and the “Initial Observations” value is given as “no change”.
Turning to `COc1ccc2[nH]cc(CCN(C)C)c2c1.Cl` [DJP2202-007-18], in data set [2], the “3-day Observations” value is listed as “clear solution” and the “Initial Observations” value is reported as “dissolved”.
As to `COc1ccc2[nH]cc(CCN(C)C)c2c1.Cl` [DJP2202-007-02], in data set [2], the “XRPD Result” value is recorded as “Pattern 1”, the “3-day Observations” value is recorded as “few crystals” and the “Initial Observations” value is reported as “no change”.
In the case of `COc1ccc2[nH]cc(CCN(C)C)c2c1.Cl` [DJP2202-007-06], in data set [2], the “XRPD Result” value is on record as “Pattern 1”, the “3-day Observations” value is on record as “few crystals” and the “Initial Observations” value is “no change”.
Regarding `COc1ccc2[nH]cc(CCN(C)C)c2c1.Cl` [DJP2202-007-03], in data set [2], the “XRPD Result” value is listed as “Pattern 1”, the “3-day Observations” value was “few crystals” and the “Initial Observations” value is listed as “no change”.
Turning to `COc1ccc2[nH]cc(CCN(C)C)c2c1.Cl` [DJP2202-007-20], in data set [2], the “XRPD Result” value is recorded as “Pattern 1”, the “3-day Observations” value was “few crystals” and the “Initial Observations” value is on record as “no change”.
As to `COc1ccc2[nH]cc(CCN(C)C)c2c1.O=C(O)c1ccccc1` [benzoate salt pattern 3, 5-MeO-DMT benzoate], the “start of decomposition / complete mass loss (TGA)” value in data set [1] is “approximately 190 °C”.
On to `COc1ccc2[nH]cc(CCN(C)C)c2c1.Cl` [DJP2202-007-24], for which, in data set [2], the “3-day Observations” value is on record as “clear solution” and the “Initial Observations” value is given as “dissolved”.
As for `COc1ccc2[nH]cc(CCN(C)C)c2c1.O=C(O)c1ccccc1` [benzoate salt pattern 2, 5-MeO-DMT benzoate], the “thermal stability up to (TGA)” value in data set [1] is ~170 °C.
For the molecule `COc1ccc2[nH]cc(CCN(C)C)c2c1.Cl` [DJP2202-007-22], in data set [2], the “XRPD Result” value is reported as “Pattern 1”, the “3-day Observations” value is “few crystals” and the “Initial Observations” value is given as “no change”.
In the case of `COc1ccc2[nH]cc(CCN(C)C)c2c1.Cl` [DJP2202-007-10], in data set [2], the “XRPD Result” value was “Pattern 1”, the “3-day Observations” value is reported as “white solid” and the “Initial Observations” value is “no change”.
As for `COc1ccc2[nH]cc(CCN(C)C)c2c1.Cl` [DJP2202-007-09], in data set [2], the “XRPD Result” value is “Pattern 1” and the “Initial Observations” value is given as “no change”.
As to `COc1ccc2[nH]cc(CCN(C)C)c2c1.Cl` [DJP2202-007-25], in data set [2], the “3-day Observations” value is on record as “clear solution” and the “Initial Observations” value was “dissolved”.
With `COc1ccc2[nH]cc(CCN(C)C)c2c1` [Ketoglutarate salt, 5-MeO-DMT ketoglutarate], the “water uptake at 40% RH” value in data set [3] (first sorption isotherm) is recorded as 0.13 % w/w. In addition, the “deliquescence during DVS” value in data set [3] (high RH) is reported as “deliquesce at high RH”.
In the case of `COc1ccc2[nH]cc(CCN(C)C)c2c1.Cl` [DJP2202-007-13], in data set [2], the “XRPD Result” value is on record as “Pattern 1”, the “3-day Observations” value is “white solid” and the “Initial Observations” value is listed as “no change”.
For `COc1ccc2[nH]cc(CCN(C)C)c2c1.Cl` [DJP2202-007-12], in that order: “Pattern 1”, “white solid” and “no change”.
With `COc1ccc2[nH]cc(CCN(C)C)c2c1.O=C(O)c1ccccc1` [benzoate salt pattern 4, 5-MeO-DMT benzoate], in data set [1], the “start of decomposition / complete mass loss (TGA)” value is “approximately 190 °C” and the “thermal stability up to (TGA)” value was “approximately 190 °C”.
As for `COc1ccc2[nH]cc(CCN(C)C)c2c1.Cl` [hydrochloride salt, 5-MeO-DMT hydrochloride], the “thermal stability up to (TGA)” value in data set [1] is ~235 °C. For the same molecule, the “XRPD Results” value in data set [2] (evaporation at RT of lyophilised hydrochloride salt from 1-PrOH (DJP2202-011-02)) is listed as “Pattern 1”; in data set [2] (evaporation at RT of lyophilised hydrochloride salt from EtOH (DJP2202-011-05)) it was “Pattern 1”; in data set [2] (evaporation at RT of lyophilised hydrochloride salt from IPA (DJP2202-011-06)) it was “Pattern 1”; in data set [2] (evaporation at RT of lyophilised hydrochloride salt from MEK (DJP2202-011-11)) it was “Pattern 1”; in data set [2] (evaporation at RT of lyophilised hydrochloride salt from MeCN (DJP2202-011-12)), “Oil”.
Consider `COc1ccc2[nH]cc(CCN(C)C)c2c1.Cl` [DJP2202-007-17], for which, in data set [2], the “3-day Observations” value is recorded as “few crystals” and the “Initial Observations” value was “dissolved”.
`COc1ccc2[nH]cc(CCN(C)C)c2c1.Cl` [DJP2202-007-04]: in data set [2], the “3-day Observations” value is on record as “clear solution” and the “Initial Observations” value is given as “dissolved”.
On to `COc1ccc2[nH]cc(CCN(C)C)c2c1.Cl` [DJP2202-007-16], for which, in data set [2], the “XRPD Result” value is given as “Pattern 2”, the “3-day Observations” value is listed as “white crystals” and the “Initial Observations” value is “no change”.
Take `COc1ccc2[nH]cc(CCN(C)C)c2c1.Cl` [DJP2202-007-08]: in data set [2], the “XRPD Result” value is “Pattern 1” and the “Initial Observations” value is listed as “no change”.
Regarding `COc1ccc2[nH]cc(CCN(C)C)c2c1.Cl` [DJP2202-007-21], in data set [2], the “XRPD Result” value was “Pattern 1”, the “3-day Observations” value is listed as “few crystals” and the “Initial Observations” value was “no change”.
For the molecule `COc1ccc2[nH]cc(CCN(C)C)c2c1` [free base, 5-methoxy-N,N-dimethyltryptamine], in data set [1], the “thermal stability up to (TGA)” value stood at 150 °C.
With `COc1ccc2[nH]cc(CCN(C)C)c2c1.Cl` [DJP2202-007-11], in data set [2], the “XRPD Result” value is reported as “Pattern 1”, the “3-day Observations” value is on record as “white solid” and the “Initial Observations” value is recorded as “no change”.
In the case of `COc1ccc2[nH]cc(CCN(C)C)c2c1.Cl` [DJP2202-007-05], in data set [2], the “XRPD Result” value is listed as “Pattern 1”, the “3-day Observations” value was “few crystals” and the “Initial Observations” value is given as “no change”.
In the case of `COc1ccc2[nH]cc(CCN(C)C)c2c1.Cl` [DJP2202-007-15], in data set [2], the “XRPD Result” value is reported as “Pattern 1” and the “Initial Observations” value was “no change”.
